Test results published in paper PMC8833476, “Short-Term Effects of Temperature and Thyrotropin-Releasing Hormone Stimulation on Adrenocorticotropin Stability in Horses” (Animals : an Open Access Journal from MDPI, 2022).

What was measured:
[1] = Short-term stability of immunoreactive ACTH in whole blood stored 1 h at 4, 20, 30, 40 or 70 °C; format: in vitro ADME, horse; conditions: for Mean change of immunoreactive ACTH concentration after 1 h: whole blood 1 h at 20 °C vs 4 °C; for ACTH concentration as percentage of the reference sample (4 °C = 100%), range over horses: equine EDTA whole blood
Description: For horses that underwent TRH stimulation, blood was collected 30 min after receiving 1 mg of TRH intravenously (Sigma-Aldrich Pty Ltd. (subsidiary of Merck), North Ryde BC, New South Wales, Australia). Blood was sampled between 7 and 8 am. All procedures were approved by the University of Queensland Animal Ethics Committee, approval number SVS/474/17, 22nd December 2017.
Samples were taken to the laboratory within 1 h of collection. They were then stored as whole blood either in a temperature-monitored refrigerator (4 °C), in a temperature-controlled room (20 °C), or in incubators (30, 40, or 70 °C) for 1 h. Samples were then centrifuged at 3500× g at 4 °C for 10 min. The plasma was separated and analyzed within 2 h of collection from the horse. […] Due to the necessity of analyzing all samples within a 2-h window from collection, and limitations on the speed of the analyzer, the 15 horses were sampled over a 4-day period. The samples from each horse were run using the same kit.
The reference sample was defined as the sample stored at 4 °C.

[2] = delaying centrifugation of horse blood by 1 h; cited from earlier work
[3] = room temperature (21 °C), analyzed prior to 8 h; mostly PPID-negative horses; cited from earlier work
Source text: In contrast, our study found t ...

[4] = human blood samples at room temperature; cited from earlier work

Row | Substance | Mean change of immunoreactive ACTH concentration after 1 h ([1]; PPID horses) [%] | Bland–Altman mean bias of ACTH concentration, 4 versus 20 °C ([1]; equine EDTA whole blood stored 1 h at 20 °C vs 4 °C reference, then centrifuged, plasma immunoreactive ACTH by Immulite 1000 chemiluminescent assay, 15 horses) [pg/mL] | Bland–Altman mean bias of ACTH concentration, 4 versus 30 °C ([1]; equine EDTA whole blood stored 1 h at 30 °C vs 4 °C reference, Immulite 1000 chemiluminescent assay, 15 horses) [pg/mL] | Bland–Altman mean bias of ACTH concentration, 4 versus 40 °C ([1]; equine EDTA whole blood stored 1 h at 40 °C vs 4 °C reference, Immulite 1000 chemiluminescent assay, 15 horses) [pg/mL] | Bland–Altman mean bias of ACTH concentration, 4 versus 70 °C ([1]; equine EDTA whole blood stored 1 h at 70 °C vs 4 °C reference, Immulite 1000 chemiluminescent assay, only 9 of 15 samples analysable) [pg/mL] | ACTH concentration as percentage of the reference sample (4 °C = 100%), range over horses ([1]; 1 h at 20 °C, Immulite 1000 chemiluminescent assay, 15 horses (PPID and non-PPID, basal and post-TRH), not significant) [%] | ACTH concentration as percentage of the reference sample (4 °C = 100%), range over horses ([1]; 1 h at 30 °C, Immulite 1000, 15 horses, not significant) [%] | ACTH concentration as percentage of the reference sample (4 °C = 100%), range over horses ([1]; 1 h at 40 °C, Immulite 1000, 15 horses, not significant) [%] | ACTH concentration as percentage of the reference sample (4 °C = 100%), range over horses ([1]; 1 h at 70 °C, Immulite 1000, 9 of 15 samples analysable (solidification), p = 0.001) [%] | Mean change of immunoreactive ACTH concentration after 1 h ([1]; non-PPID horses) [%] | Measured ACTH concentration, reference sample ([1]; one non-PPID horse, post-TRH stimulation, whole blood 1 h at 4 °C, single horse) [pg/mL] | Measured ACTH concentration after storage ([1]; one non-PPID horse, post-TRH stimulation, whole blood 1 h at 20 °C, single horse) [pg/mL] | Measured ACTH concentration after storage ([1]; one non-PPID horse, post-TRH stimulation, whole blood 1 h at 40 °C, single horse) [pg/mL] | Deviation of measured ACTH concentration above the same sample stored at 4 °C ([1]; whole blood 1 h at 20 °C, maximum over horses) | Mean reduction in the measured ACTH concentration [2] [pg/mL] | Difference between samples kept at room temperature and at 4 °C [3] | Time at room temperature prior to centrifugation at which the measured ACTH concentration is altered [4] [h]
1 | adrenocorticotropic hormone [ACTH] | 5 | -2.8 | -1.38 | -0.16 | 10.1 | 84.3 to 122.1 | 89.4 to 115.6 | 86.5 to 116.3 | 72 to 94.4 | 12 | 60.9 | 69.1 | 70.8 | up to 22% | 11.6 | no difference | 
2 | human ACTH: endogenous human ACTH, reported as highly unstable due to proteolytic degradation (SYSMEHFRWGKPVGKKRRPVKVYPNGAEDESAEAFPLEF; Corticotropin; UniProt P01189 138-176, looked up) |  |  |  |  |  |  |  |  |  |  |  |  |  |  |  |  | ≥ 4
